Experimental data: patent US20040116418A1, “Compounds and methods for inhibition of HIV and related viruses” (Medivir AB, priority 1994, published 2004)
Values joined by “and” are separate entries in the source; they are usually repeats but may differ in a detail not shown here. Equal entries are not always repeated. Where two headings read alike, the source gives them in different places.

How the values were obtained:
recombinant HIV-RT = recombinant HIV-RT (Human immunodeficiency virus type 1 group M subtype B, UniProt P04585); test: Test I (HIVRT (rAdt)): direct inhibitory activity on HIV-RT; type: biochemical
Experimental: 100 mM Tris-HCl pH 7.6, 100 mM KCl, 4 mM MgCl2, 4 mM DTT, 275 mg/ml BSA, 0.5 mg (rA)n(dT)12-18 and 0.3 mM ^3H-=dTTP (specific activity 18.000 cpm/mol). After 60 minutess of incubation 40 ml in duplicate were spotted on paper discs and washed in 5% TCA. After rinsing the paper discs in ethanol they were dried and counted in scintillation fluid.

HIV virus = test: Test A (XTT): reduction of virus-caused cytotoxicity in MT4 cells; type: cell-based; settings: for inhibition at 0.01 µg/mL: 0.01 μg/ml; for % inhibition: Test A
Experimental: Tests A, B, C, and D (XTT)
MT4 cells in a medium of RPMI 1640, 5% FCS, penicillin/streptomycin are adjusted to 2×10^5 cells/ml and seeded into microplates (96 wells/plate) […] cell suspension/well giving 2×10^4 cells/well. The compound to be tested is made into a 10 mg/ml mixture in DMSO and stored at −20° C. […] Further dilutions to […] are made in medium containing microplates. Fifty ml of the 400, 40, and 4 mg/ml are transferred to the cell-containing microplates with a multi-channel pipette (final concentration: 100, 10, and 1 mg/ml). Finally, […] of virus suspension is added to each well (with a repetitive “Eppendorf” multipipett). […] The plate is put into a plastic bag and incubated for six days in CO2 atmosphere.
To each well in the plate is added 50 ml of XTT ((2,3-bis[2-methoxy-4-nitro-5-sulfophenyl]-5-[(phenylamin o)carbonyl]-2H-tetrazolium hydroxide), (1 mg/ml 0.01-0.02 mM N-metyl-phenazonium methosulfate). After six hours of incubation in C02 atmosphere the plates are covered with adhesive plate sealers and gently mixed on a vortex. Optical densities are determined at a wavelength of 450 nm and a reference wavelength of 650 nm. The percent reduction of cytotoxocity caused by the virus infection is calculated as follows: [formula]

[1] = headed 0.1 μg/ml (after 0.001 μg/ml)
[2] = Human immunodeficiency virus 1, MT4
[3] = Human immunodeficiency virus 1, MT4, Test A
[4] = Human immunodeficiency virus 1, MT4, Test A, 100 μg/ml, read-out: % inhibition

## O=C(Nc1ccc(Cl)cn1)N[C@H]1CC1c1c(F)cccc1F (some centres unmarked)
Recombinant HIV-RT; 0.001 μg/ml
  % inhibition: 62%
  inhibition at 0.001 µg/mL: 55%
Recombinant HIV-RT; 0.01 μg/ml
  % inhibition: 93%
  inhibition at 0.01 µg/mL: 89%
Recombinant HIV-RT; 0.1 μg/ml
  % inhibition: 97%
  inhibition at 0.1 µg/mL: 98%
Recombinant HIV-RT; 1 μg/ml
  inhibition at 1 µg/mL: 100%
Recombinant HIV-RT; [1]
  % inhibition: 6% and 16%
HIV virus; [2]
  inhibition at 0.1 µg/mL: 100%
  inhibition at 10 µg/mL: 100%
  inhibition at 100 µg/mL: 100%
HIV virus; Human immunodeficiency virus 1, MT4, Test A, 0.001 μg/ml
  inhibition at 0.001 µg/mL: 7%
HIV virus; [3]
  inhibition at 0.01 µg/mL: 80%
HIV virus; [4]
  inhibition at 100 µg/mL: 3%
HIV virus; 0.001 μg/ml
  % inhibition: 8%
HIV virus; 1 μg/ml
  % inhibition: 90%

## CCOc1ccc(F)c(CCNC(=O)Nc2ccc(Br)cn2)c1Cl
Recombinant HIV-RT; [1]
  % inhibition: 13% and 18%

## CCOc1ccc(F)c(C2C[C@@H]2NC(=O)Nc2ccc(Cl)cn2)c1Cl (some centres unmarked)
Recombinant HIV-RT; 0.001 μg/ml
  % inhibition: 30%
  inhibition at 0.001 µg/mL: 46%
Recombinant HIV-RT; 0.01 μg/ml
  % inhibition: 80%
  inhibition at 0.01 µg/mL: 82%
Recombinant HIV-RT; 0.1 μg/ml
  inhibition at 0.1 µg/mL: 96%
Recombinant HIV-RT; 1 μg/ml
  % inhibition: 97%
  inhibition at 1 µg/mL: 99%
Recombinant HIV-RT; read-out: IC50 (converted)
  IC50: 2.86 nM and 5.21 nM
HIV virus; [3]
  inhibition at 0.01 µg/mL: 100%
HIV virus; Human immunodeficiency virus 1, MT4, Test A, 0.1 μg/ml, read-out: % inhibition
  inhibition at 0.1 µg/mL: 100%
HIV virus; Human immunodeficiency virus 1, MT4, Test A, 1 μg/ml
  inhibition at 1 µg/mL: 87%
HIV virus; Human immunodeficiency virus 1, MT4, Test A, 10 μg/ml, read-out: % inhibition
  inhibition at 10 µg/mL: 88%
HIV virus; [4]
  inhibition at 100 µg/mL: 24%
HIV virus; 100 μg/ml
  % inhibition: 30%

## O=C(Nc1ccc(Cl)cn1)N[C@@H]1C[C@@H]1c1cccc([N+](=O)[O-])c1 (racemic) [Example 21, (+,−)-N-(cis-2-(3-Nitrophenyl)-cyclopropyl)-N′-(5-chloropyrid-2-yl)-urea]
Recombinant HIV-RT; read-out: IC50 (converted)
  IC50: 150 nM

## CC(=O)c1cccc([C@H]2C[C@H]2NC(=O)Nc2ccc(Cl)cn2)c1 (racemic) [Example 23, (+,−)-N-(cis-2-(3-Acetylphenyl)-cyclopropyl)-N′-(5-chloropyrid-2-yl)-urea]
Recombinant HIV-RT; read-out: IC50 (converted)
  IC50: 15.2 nM and 42.5 nM

## O=C(Nc1ccc(Br)cn1)N[C@@H]1C[C@H]1c1c(F)cccc1F (relative stereo) [Example 27, (1R,2S)-N-(cis-2-(2,6-Difluorophenyl)-cyclopropyl)-N′-(5-bromopyrid-2-yl)-urea]
Recombinant HIV-RT
  IC50: 0.5 ng/mL and 0.6 ng/mL

## N#Cc1ccc(NC(=O)N[C@@H]2C[C@@H]2c2c(F)cccc2Cl)nc1 (relative stereo) [Example 33, N-(cis-2-(2-chloro-6-fluorophenyl)-cyclopropyl)-N′-(5-cyanopyrid-2-yl)-urea]
other
  melting point: 189 °C

## COCOc1c(C(C)=O)ccc(F)c1[C@H]1C[C@H]1NC(=O)Nc1ccc(Cl)cn1 (relative stereo) [Example 56, (+,−)-N-(cis-2-(5-Acetyl-2-fluoro-6-methoxymethoxy-phenyl)cyclopropyl)-N′-(5-chloropyrid-2-yl)-urea]
Recombinant HIV-RT
  IC50: 2.2 ng/mL

## CC(NC(=O)Nc1ccc(Br)cn1)c1ncccc1F (centres unmarked) [Example 10, N-(3-Fluoropyrid-2-yl)eth-2yl-N′-(5-bromopyrid-2-yl)-urea]
other
  melting point: 151 to 154 °C

## CC(=O)c1ccc(F)c(CCNC(=O)Nc2ccc(Cl)cn2)c1O [Example 58]
Recombinant HIV-RT
  IC50: 38 ng/mL
